The results in this text go back to ChEMBL document CHEMBL1138005, “Carbonic anhydrase inhibitors: synthesis and inhibition of cytosolic/tumor-associated carbonic anhydrase isozymes I, II, and IX with sulfonamides incorporating 1,2,4-triazine moieties” (Bioorg Med Chem Lett, 2004).

Targets include Carbonic anhydrase 1 (Homo sapiens, UniProt P00915); Carbonic anhydrase 9 (Homo sapiens, UniProt Q16790); Carbonic anhydrase 2 (Homo sapiens, UniProt P00918).

Sequence of Carbonic anhydrase 1 (P00915 whole entry): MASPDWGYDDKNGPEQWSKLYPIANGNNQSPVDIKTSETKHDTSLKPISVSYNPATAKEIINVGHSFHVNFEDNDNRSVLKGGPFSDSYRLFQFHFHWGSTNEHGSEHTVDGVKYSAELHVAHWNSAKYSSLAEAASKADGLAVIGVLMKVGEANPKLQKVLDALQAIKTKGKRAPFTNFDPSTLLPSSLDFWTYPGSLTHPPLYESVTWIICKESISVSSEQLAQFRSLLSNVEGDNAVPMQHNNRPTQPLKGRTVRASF

As for `CNc1nc(NC)nc(Nc2ccc(S(N)(=O)=O)cc2)n1`, the affinity at Carbonic anhydrase 1, expressed as Ki, was 0.083 µM.

Consider `COc1nc(Nc2ccc(S(N)(=O)=O)cc2)nc(OC)n1`, for which the values for the Ki on Carbonic anhydrase 1, at Carbonic anhydrase 9 and at Carbonic anhydrase 2 were 0.085 µM, 0.15 µM and 0.036 µM, respectively.

With `CCOc1nc(NCCc2ccc(S(N)(=O)=O)cc2)nc(OCC)n1`, the Ki was found to be 0.082 µM on Carbonic anhydrase 1 and 0.023 µM at Carbonic anhydrase 2.

On to `NS(=O)(=O)c1ccc(CCNc2nc(=O)[nH]c(=O)[nH]2)cc1`, for which the figures for the Ki at Carbonic anhydrase 1, on Carbonic anhydrase 9 and at Carbonic anhydrase 2 were 0.096 µM, 0.549 µM and 0.098 µM, respectively.

As for `NS(=O)(=O)c1ccc(CNc2nc(=O)[nH]c(=O)[nH]2)cc1`, the Ki amounted to 0.094 µM at Carbonic anhydrase 1, 0.36 µM on Carbonic anhydrase 9 and 0.13 µM at Carbonic anhydrase 2.

As to `COc1nc(NCCc2ccc(S(N)(=O)=O)cc2)nc(OC)n1`, the Ki came to 0.162 µM on Carbonic anhydrase 9 and 0.021 µM on Carbonic anhydrase 2.

For `CNc1nc(NC)nc(NCCc2ccc(S(N)(=O)=O)cc2)n1`, the Ki on Carbonic anhydrase 1 stood at 0.088 µM; at Carbonic anhydrase 9, 0.0011 µM; on Carbonic anhydrase 2, 0.027 µM.

Turning to `CCOc1nc(NCc2ccc(S(N)(=O)=O)cc2)nc(OCC)n1`, the results for the Ki on Carbonic anhydrase 1, on Carbonic anhydrase 9 and on Carbonic anhydrase 2 were 0.11 µM, 0.00034 µM and 0.084 µM, respectively.

Consider `NS(=O)(=O)c1ccc(Nc2nc(=O)[nH]c(=O)[nH]2)cc1`, for which the Ki on Carbonic anhydrase 1 came out at 0.103 µM; at Carbonic anhydrase 9, 0.142 µM; on Carbonic anhydrase 2, 0.278 µM.

As for `CNc1nc(NC)nc(NCc2ccc(S(N)(=O)=O)cc2)n1`, the Ki was found to be 0.09 µM on Carbonic anhydrase 1, 0.0013 µM at Carbonic anhydrase 9 and 0.015 µM at Carbonic anhydrase 2.

Take `CCOc1nc(Nc2ccc(S(N)(=O)=O)cc2)nc(OCC)n1`: the Ki on Carbonic anhydrase 1 was 0.078 µM; on Carbonic anhydrase 9, 0.00012 µM; on Carbonic anhydrase 2, 0.02 µM.

With `COc1nc(NCc2ccc(S(N)(=O)=O)cc2)nc(OC)n1`, the Ki at Carbonic anhydrase 1 was determined as 0.116 µM; at Carbonic anhydrase 9 it was 0.155 µM; at Carbonic anhydrase 2, 0.112 µM.

For the compound `NS(=O)(=O)c1ccc(CCNc2nc(Cl)nc(Cl)n2)cc1`, the Ki was determined as 0.075 µM on Carbonic anhydrase 1, 0.138 µM on Carbonic anhydrase 9 and 0.021 µM on Carbonic anhydrase 2.

`NS(=O)(=O)c1ccc(Nc2nc(Cl)nc(Cl)n2)cc1`: the Ki on Carbonic anhydrase 9 turned out to be 0.00015 µM.
